Consider three molecules from article PMC3006207, “Phosphorylation-Dependent Protein Interaction with Trypanosoma brucei 14-3-3 Proteins that Display Atypical Target Recognition” (PLoS ONE, 2010).

The subject of one experiment is GST-I K77E +II K56E. Put plainly: NC-filter binding assay, mutant heterodimer. More on the design: species or system Trypanosoma brucei. The procedure:
I K77E: 5′-[…]-3′, 5′-[…]-3′; and II K56E: 5′-[…]-3′, 5′-[…]-3′. The sequences were confirmed.
(§1) Five µl of 1 mM biotinylated peptides, purchased from Scrum (Japan) were mixed with 15 µl of streptavidine (1 mg/ml) in the presence of 0.1% Tween20, spotted on NC-filters and dried. Filters were washed with TTBS, blocked with Protein-Free Blocking Buffer (Pierce), and then incubated with GST-14-3-3 proteins in TTBS containing 20% Protein-Free Blocking Buffer and 1 mM DTT. The filters were extensively washed four times with TTBS, and detected with anti-GST antibodies.

The subject of the next experiment is human 14-3-3ζ. Put plainly: NC-filter binding assay, human 14-3-3ζ. The procedure: as §1
In experiment [1] the test system is heterodimeric T. brucei 14-3-3I+II. In words: NC-filter binding assay, heterodimeric T. brucei 14-3-3. The conditions noted are these: biotinylated peptide + streptavidine on nitrocellulose filter; GST-14-3-3 detected with α-GST antibodies. Details: species or system Trypanosoma brucei. The procedure: as §1
The next experiment addresses T1, human 14-3-3τ (Homo sapiens, UniProt P27348).
T1 construct: made in house
T1 sequence (P27348 1-245): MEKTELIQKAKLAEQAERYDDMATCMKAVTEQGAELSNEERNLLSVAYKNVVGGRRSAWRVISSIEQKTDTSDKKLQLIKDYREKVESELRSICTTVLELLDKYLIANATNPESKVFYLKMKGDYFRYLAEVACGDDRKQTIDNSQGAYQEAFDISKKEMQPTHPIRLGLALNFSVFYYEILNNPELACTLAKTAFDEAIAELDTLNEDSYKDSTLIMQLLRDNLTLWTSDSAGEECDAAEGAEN
In words: Surface plasmon resonance (BIAcore), phosphopeptide vs 14-3-3τ. Particulars: 200 nM GST-14-3-3τ; peptide 296 RU on SA5 chip; HBS-EP buffer. It is filed as binding. The procedure: (§2) The surface plasmon resonance measurement was carried out using BIAcore 2000. A resonance unit value of 220 of biotinylated phosphopeptide pSRaf 259 (biotin-MAGGGRQRSTpSTPN) (mode 1 peptide) was coupled to a streptavidin-coated sensor chip (SA5, BIAcore). In the next step, 200 nM each of purified GST-14-3-3I, GST-14-3-3II, and GST–14-3-3τ, or 500 nM each of MBP-14-3-3I, MBP-14-3-3II, and MBP-14-3-3τ in HBS-EP buffer (BIAcore) was injected at a flow rate of 20 µl/min. A resonance unit value of 296 of biotinylated mode 2 peptide (biotin-MAGGGRLYHpSLP) was also coupled to SA5 and 200 nM each of GST-14-3-3I, GST-14-3-3II and GST-14-3-3τ in HBS-EP buffer, and was injected in the same manner.
A general note: SPR reads the build-up and loss of mass on a sensor chip optically.

The next experiment concerns T. brucei 14-3-3II. Put plainly: Surface plasmon resonance (BIAcore), phosphopeptide vs 14-3-3II. It is filed as binding, Trypanosoma brucei. Particulars: 200 nM GST-14-3-3II; peptide 296 RU on SA5 chip; HBS-EP buffer. As for the experimental part: as §2
The next experiment deals with T. brucei 14-3-3I. Put plainly: Surface plasmon resonance (BIAcore), phosphopeptide vs 14-3-3I. It is filed as binding, Trypanosoma brucei. The conditions noted are these: 200 nM GST-14-3-3I; peptide 296 RU on SA5 chip; HBS-EP buffer. The procedure:
as §2

Experiment [2] relates to endogenous 14-3-3I and II. Put plainly: Co-immunoprecipitation with α-V5 Ab in T. brucei PCF cells. It is filed as cell-based, Trypanosoma brucei. The conditions noted are these: Tet-inducible T. brucei PCF clones; Western blot with mixture of α-I and α-II Ab. From the text:
Figure 2 Interaction of T. brucei PP2c with T. brucei and human 14-3-3 proteins. (A) and (B) Mammalian expression vectors pCR3 N-V5-PP2c, –PP2c S744A or -C-terminal mutants of PP2c were transiently transfected to HEK293T cells. The cell lysates were subjected to immunoprecipitation with α-V5 Ab followed by far-Western blot analyses (Far-WB) using indicated probes (upper panel). Immunoprecipitated proteins were reprobed with α-V5 Ab (lower panel). (C) Modes 1-3 phosphopeptides summarized in Table 1 have far less affinity to T. brucei 14-3-3 than human 14-3-3ζ proteins. Indicated biotinylated phosphopeptides were mixed with streptavidine and spotted to nitrocellulose filters and dried. The filters were then incubated with indicated GST-14-3-3 proteins and detected with α-GST antibodies. (D) Tet-inducible T. brucei expression vector, pLew82 T7bsr-N-V5-PP2c was transfected and clones were isolated with blasticidin selection. Tet-uninduced (Tet−) or –induced (Tet +) cell lysates of the clone were subjected to immunoprecipitation followed by Western blotting using a mixture of α-I and II Ab (lower panel), and horseradish peroxidase (HRP)-labeled α-V5 Ab (upper panel).
(§3) Figure 3 p31-SAP binds to T. brucei 14-3-3 proteins in vivo (PCF cells). […] Immunoprecipitated proteins were analyzed by Far-WB with GST-II + I as a probe (upper panel). […]
For orientation: In western blotting, separated proteins are transferred to a membrane and probed.

Another experiment concerns T. brucei GST-II +I. In words: Far-Western blot of immunoprecipitated V5-tagged proteins, probe GST-II +I. In kind it is binding, Trypanosoma brucei. The conditions noted are these: protein expressed in HEK293T cells, immunoprecipitated with anti-V5.
From the text: (§4) We first examined whether a putative protein phosphatase 2c (PP2c) in the list interacts with T. brucei 14-3-3 proteins, since the phenotype of knockdown of 14-3-3I and/or II resembled that of okadaic acid, a potent serine/threonine phosphatase inhibitor, -treated T. brucei cells and PP2c has a putative mode 3 motif. The N-terminally V5-tagged PP2c protein was expressed in human HEK293T cells and purified by immunoprecipitation using anti-V5 monoclonal antibody (Ab). Far-WB probing with GST-14-3-3 proteins was used to detect the direct interaction. We have recently identified the heterodimeric form as the major form of T. brucei 14-3-3 proteins (unpublished data) and thus, recombinant heterodimeric GST-II +I was used as a probe. […] We further confirmed that the binding was mediated by intact mode 3 motif (Figure 2B).
Figure 2 Interaction of T. brucei PP2c with T. brucei and human 14-3-3 proteins. (A) and (B) Mammalian expression vectors pCR3 N-V5-PP2c, –PP2c S744A or -C-terminal mutants of PP2c were transiently transfected to HEK293T cells. […] The filters were then incubated with indicated GST-14-3-3 proteins and detected with α-GST antibodies. […]
as §3

In a further experiment the test system is human GST-14-3-3ζ. In words: Far-Western blot of immunoprecipitated V5-tagged proteins, probe GST-14-3-3ζ. It is filed as binding. Particulars: protein expressed in HEK293T cells, immunoprecipitated with anti-V5.
From the text: as §4
Figure 2 Interaction of T. brucei PP2c with T. brucei and human 14-3-3 proteins. (A) and (B) Mammalian expression vectors pCR3 N-V5-PP2c, –PP2c S744A or -C-terminal mutants of PP2c were transiently transfected to HEK293T cells. The cell lysates were subjected to immunoprecipitation with α-V5 Ab followed by far-Western blot analyses (Far-WB) using indicated probes (upper panel). Immunoprecipitated proteins were reprobed with α-V5 Ab (lower panel). […] The filters were then incubated with indicated GST-14-3-3 proteins and detected with α-GST antibodies. […]

“MGGGHVSGLKRRRpSV [synthetic mode 3 phosphopeptide derived from p31-SAP]”: the “binding of mutant 14-3-3 to p31-SAP derived peptide” value with GST-I K77E +II K56E is on record as “prevent the binding to the p31-SAP derived peptide”. Moreover, in the experiment with human 14-3-3ζ (NC-filter, relative to T. brucei 14-3-3), the “affinity to p31-SAP derived phosphopeptide, human 14-3-3ζ vs T. brucei 14-3-3” value is “slightly higher affinity to the p31-SAP derived phosphopeptide than T. brucei 14-3-3”. In addition, the “interaction with spotted phosphopeptide” value with human 14-3-3ζ (biotinylated peptide + streptavidine on nitrocellulose filter, GST-14-3-3ζ detected with α-GST antibodies) is “interacts with both phosphopeptides but with the preferential binding to the mode 3 peptide derived from p31-SAP”; in experiment [1] it was “clearly detected”.
In the case of “biotin-MAGGGRLYHpSLP [mode 2 phosphopeptide, biotinylated mode 2 peptide (biotin-…pSLP)]”, the figures for the “binding pattern of the sensorgram, mode 2” value on human 14-3-3τ, with T. brucei 14-3-3II and in the experiment on T. brucei 14-3-3I were “bound to the mode 2 phosphopeptide”, “neither GST-14-3-3I nor GST–14-3-3II showed any binding” and “neither GST-14-3-3I nor GST–14-3-3II showed any binding”, respectively.

B1: V5-tagged PP2c: N-terminally V5-tagged putative T. brucei protein phosphatase 2c (Tb927.7.4020) (protein)
chain: MYTSVRKPPLSTAKLSEKTDAAGKGNLNGVAESPTSRDGGIGSSMPYVARKPNSGDGQGRPGEVQRAGQVTYQTTNALFTGSTVPGKTKDVSTAKSSGGGDHLNNGDRPPLVGDNNEVSSPRTIKMNSSPPRRYFHRGAINCNSSENVAAVLGGSTLISGERVGSGSGYPRRVFSGPPSTRMLNQGGEEPAQKPQPPGSSRSKSGIRQLQFALNGNSSQRLLPVPPRQLCPSNPARRGGGAATVTPRCSDARRQKQDSTDPFDMTQVLNGVGTQLGLPSYCPGAESSQGSNRLRGSKPPSPSLLPLASLRSQQMPSTAGVPAPRSLSESQQLSINPSGVFGCATDCKNGLGYDFRVVASTGKSFNLPIKLTAGVGCVQGLRPTMEDEHFIRLQATTAVGQPVSLLGILDGHCGRRVAELAAKHVPDNFIAHPALGENNALAFVESIIQADRAIFHSIGKGSGGVGLSAGFGGSGGSTLIAAAVHGRMLYVACLGDARAVLYDGNTTIPMSEDHKPLNKKEHTRILQCGGFVQLGRVCGVLAVSRALGDYEFKFNGNRFISNRELMVSNVADVRQINLTDSSKFLLLACDGLWDAVQNEEATQFVRDFLSYTPDVGSSPEATKRAINNCCQKLAEFAVSRGSTDNVSVMLLFFHNVADVVASFDRASDATTSRATVTSPVSPRLFSASRGVNAGFTGMESRLAGISGGSSSGAFGGSSGAEGSSVRGAGRTKVDRGASWLTRSRSLW
modifications: left off: V5, N-terminal, kept
Turning to B1, the “co-immunoprecipitation with 14-3-3I and II” value in [2] is “failed to show the interaction of 14-3-3 with PP2c”. Further, the “direct binding by Far-WB” value was “to T. brucei GST-II +I (heterodimerized recombinant proteins) with lower affinity” with T. brucei GST-II +I and “directly bound to GST-14-3-3ζ with high affinity” in the experiment on human GST-14-3-3ζ.
